Reference: patent US6136336A, “JM216 formulations” (priority 1999, dated 2000)
“Also recorded” adds a separate entry of the source.

Assays:
[1] = Standard dissolution test (phosphate buffer pH 7.5, 37° C.); format: physicochemical; settings: phosphate buffer 1/15 M
Source text: The present inventors first attempted to reduce the particle size of the JM216 powder obtained from chemical synthesis by grinding or milling it to an amorphous state (as confirmed by x-ray diffraction pattern). The amorphous state indicates the disappearance of particles or crystalline drug and a particle size close to the molecular level. […] The addition of β-cyclodextrin or polymers to the JM216 during the grinding did allow obtaining the drug as an amorphous powder by reduction of the aggregation. […] The ratio of drug:β-cyclodextrin or drug:polymer also has some effect on solubility, with solubility generally increasing at higher β-cyclodextrin:drug or polymer:drug ratios. Ratios of drug:β-cyclodextrin or drug:polymer of from about 1:1 to about 1:15 (w/w) can be used with ratios of from about 1:4 to 1:15 being preferred and ratios of from about 1:9 to about 1:15 being most preferred.
Dissolution test: The ground mixture containing 5 mg. of JM216 was transferred directly into 50 ml of phosphate buffer (1/15 M, pH 7.5) kept at 37° C. and was stirred with a magnetic stirrer bar at 300 rpm. An aliquot of the solution was pipetted at the indicated time intervals and filtered through a 0.45 μm membrane filter. The concentration of the dissolved JM216 was determined by high performance liquid chromatography (HPLC).
Grinding of the JM216:β-cyclodextrin or JM216:polymer mixtures may be accomplished by standard procedures, e.g. automatic mortar and pestle machines or a hybridizer (milling machine). The time needed in the grinding process may be readily determined by simple test (period analysis of the mixture by x-ray diffraction studies). A suitable grinding time with the automatic mortar and pestle machine is three hours and with the hybridizer, five minutes.

[2] = Water-solubility of JM216 at 23° C.; format: physicochemical
Source text: Although the oral dosage form of JM216 being pursued in the clinic has obvious advantages over injectable platinum complexes such as cisplatin and carboplatin, it is reported by M. J. McKeage et al in Cancer Chemother. Pharmacol. 36: 451-458 (1995) that the current oral capsule form may have certain pharmacokinetic disadvantages.

[3] = In vitro drug absorption through excised rat rectum (Franz diffusion cell); format: in vitro ADME; settings: listed as JM216 bulk drug (non-amorphous)
Experimental: The rectum was freshly excised from each rat and was opened lengthwise using scissors. The excised rectum, serous membrane side down, was mounted on a Franz diffusion cell (reservoir volume 10 ml, 7 mm i.d. O ring flange). […] Gentamicin solution (10 mg/ml) was added to the reservoir fluid (phosphate buffer, pH 7.3) in the ratio of 1:100.
The various test samples were incorporated into standard suppository bases and then subjected to the in vitro drug absorption test. […] The suppository samples were prepared by fusion method melting the base at 50° C. for fatty bases or at 75° C. for polyethylene glycol water-soluble base. The drug was incorporated into the base at a concentration of 2 mg/80 mg base. Medium chain fatty acids (or Na salts thereof) and surface active agents were also added at the appropriate level.

[4] = cited from earlier work
[5] = oral capsule, dose levels ≥200 mg/m^2

CC(=O)[O][Pt]([NH2])([Cl])([Cl])([NH]C1CCCCC1)[O]C(C)=O [JM216, bis-acetato-ammine-dichloro-cyclohexylamine-platinum (IV)]
Dissolved JM216 ([1]; 1 Min.): 0.2 mg/mL
Dissolved JM216 ([1]; 5 Min.): 0.3 mg/mL
Dissolved JM216 ([1]; 15 Min.): 0.5 mg/mL
Dissolved JM216 ([1]; 30 Min.): 0.5 mg/mL
Dissolved JM216 ([1]; 60 Min.): 0.5 mg/mL
water-solubility [2]: 300 µg/mL
absorption in the rat rectum model (in words) [3]: little absorbed in the form of a suspension in water or in fatty suppository bases; also recorded: absorbed to some extent when incorporated into the water-soluble base, polyethylene glycol (PEG)
AUC (dose proportionality) [4, 5]: increased less than proportionally to dose
Cmax (dose proportionality) [4, 5]: increased less than proportionally to dose
interpatient pharmacokinetic variation [4, 5]: greater interpatient pharmacokinetic variation
urinary platinum recovery [4, 5]: reduced urinary platinum recovery
side effects seen with oral dosing ([4]; oral dosing): nausea and vomitting
